# From PubChem BioAssay AID179 (DTP/NCI, 2004)
# Active and inactive are the calls of the source.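 Rule for the calls: active = compounds giving half or more protection of infected cells from virus-caused growth loss, again on retest; inactive = the rest.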 Where a SMILES comes first, the peptide text is derived from it. The star is where a group is joined. Boc = CC(C)(C)OC(=O)*; OBn = c1ccc(CO*)cc1
# Tested on: CEM cells HIV-1 protection, formazan growth assay
# Assay: NCI AIDS Antiviral Assay
# Details: for IC50: measured here: growth of uninfected CEM cells
# Outline: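 Protection of CEM cells against HIV-1 was scored from cell growth (soluble formazan) across five concentrations, with parallel uninfected cells. Lack of protection may reflect toxicity.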
Compound,EC50 [µM],IC50 [µM],outcome
Nc1nc(SCc2ccccc2)c2ncn(CCO)c2n1,> 200,191,–
Cc1ccc(S(=O)(=O)N2CCC[C@@H]2C(=O)O[C@@H]2CCC3CC=CC32)cc1 (stereo partly drawn),> 200,12.6,–
COc1ccc(-c2c(-c3ccccc3)c(C)c3ccccn23)cc1,> 200,42.7,–
COc1cc2ccc(C(=O)O)cc2cc1OC,–,–,inactive
COC(=O)/C=C(/C=C1/C(C#N)=C(N)N(c2ccc(Cl)cc2)C1(C)/C(=C\C(=O)OC)C(=O)OC)C(=O)OC (stereo not drawn),> 200,8.91,–
COC1/C=C/OC2(C)Oc3c(C)c(O)c4c(O)c(c(C=NN5CCCCCCCCCCCCCCC5)c(O)c4c3C2=O)NC(=O)/C(C)=C/C=C/C(C)C(O)C(C)C(O)C(C)C(OC(C)=O)C1C (stereo not drawn),> 200,3.98,–
Nc1ccc(C(=O)N/C(=C\C=C\c2ccco2)c2nc3c4c(ccc3[nH]2)C(=O)c2ccccc2C4=O)cc1,–,–,inactive
Cc1ccc2c(c1)C(=O)/C(=C\c1ccccc1)CCS2(=O)=O,> 200,2.88,–
Cc1ccc(C)c2c1n1c(=O)n(C)c(=O)n21,> 200,> 200,–
O=C1CN(CCCO)CC(=O)N2Cc3ccccc3CN12,> 200,> 200,–
CCN(CC)/[N+]([O-])=N/OCOC,> 200,> 200,–
N#CC(/C(=N/NC(=O)C(=O)NN)C(=O)NC12CC3CC(CC(C3)C1)C2)c1ccccc1 (stereo not drawn),> 155,> 155,–
O=c1[nH]c2nc[nH]c2c(=O)n1C1CCCCC1,> 200,> 200,–
O=c1oc2ccccc2cc1-n1nnc2cc([N+](=O)[O-])ccc21,> 8.91,> 8.91,–
CC1=NOC(=O)/C1=C/c1cccc2ccccc12,> 1050,> 1050,–
COc1ccc2nc3ccc(OC)cc3c(SCCCl)c2c1,–,–,inactive
Cc1ccc(C2SCc3nc4ccccc4n32)cc1 (stereo not drawn),> 200,1.02,–
CCOC(=O)c1c(NC(=O)c2ccccc2)sc2c(=O)oc(-c3ccccc3)nc12,> 24,> 24,–
CC1C(=O)C(C)C(c2ccccc2)N(N=O)C1c1ccccc1 (stereo not drawn),> 42.7,> 42.7,–
ClCCCCOC1CCCCO1 (stereo not drawn),–,–,inactive
CCCCCCCCC#CCCCCCCC(F)C(=O)O (stereo not drawn),–,–,inactive
Cc1cc(=O)[nH]c(NN2C(Cl)C(=O)C2c2cccc(Cl)c2)n1 (stereo not drawn),> 200,30.2,–
Cc1cc(CO)c(O)c(C(=O)CC2CC(=O)NC(=O)C2)c1,> 200,57.5,–

Compound,EC50 [µM],IC50 [µM],outcome
CC(=O)N(O)Cc1ccccc1,> 1510,692,–
COC(=O)c1c2c(cc3c1CC1(C3)Cc3ccc4c(c3C1=O)CCC4)CCC2 (stereo not drawn),> 200,4.17,–
C/C(=N\NC(=S)N1CCC(C2CCN(C(=S)N/N=C(\C)c3ccccn3)CC2)CC1)c1ccccn1,> 3.8,1.91,–
CN(C)c1ccc(-c2c3ccccc3nc3ccccc23)cc1,> 4.57,> 4.57,–
O=C(Cn1c2c(c3ccccc31)CCCC2)NC1CCCCC1,> 200,> 200,–
O=C(NC1C2CC3CC(C2)CC1C3)c1ccncn1 (stereo not drawn),> 513,> 513,–
O=C1NC(=O)[C@@H](OCC2CCCCC2)[C@@H]2OCC3OC(C(O)C3O)C12 (stereo partly drawn),> 200,> 200,–
CC1=CCC2CC1C(C(=O)c1c[nH]c3ccccc13)=NC2(C)C (stereo not drawn),> 81.3,> 81.3,–
Cc1c2nc3ccccc3sc-2cc(=O)c1C,> 21.4,> 21.4,–
CCC1=C(OC)c2nc(C)ccc2C(=O)C1=O,–,–,inactive
COc1cc2c3c(c1)SC(c1ccccc1)C(=O)N3CCN2 (stereo not drawn),> 200,14.1,–
CCS[C@]1(C)C(=O)c2ccccc2C(=O)[C@@]1(C)O,–,–,inactive
O=C1CN(c2ccc(Cl)cc2)C(=O)CN1CCN1CC(=O)N(c2ccc(Cl)cc2)CC1=O,> 200,> 200,–
COC(=N)CCCl,> 200,> 200,–
O=S1(=O)C/C(=C\N2CCOCC2)c2ccccc21,> 200,> 200,–
O=C(C[n+]1ccccc1)c1ccc(O)c(O)c1,0.0631,> 200,–
CC(C)NC(=O)OCc1nnn2c1C(OC(=O)NC(C)C)CC2 (stereo not drawn),–,–,inactive
CC(C)C(CCOS(=O)(=O)O)CCC(C)[C@H]1[C@@H](O)C(O)C2[C@]3(O)C[C@@H](O)C4(O)C[C@@H](O)CC[C@]4(C)C3CC[C@@]21C (stereo partly drawn),–,–,inactive
NNC1=Cn2c(nc3ccccc32)NN1,–,–,inactive
O=S(O)CCCSSc1ccccc1,–,–,inactive
COC(=N)c1ncn(Cc2ccccc2)c1N,> 200,158,–
O=C(O)/C=C/C(=O)Nc1ncn[nH]1,> 1380,1320,–
CCCN(CCC)C(=S)N/N=C/c1ccccn1,> 2,0.0126,–

Compound,EC50 [µM],IC50 [µM],outcome
C=CCN1C(=O)CSC1=S,> 288,13.5,–
NC(N)=NS(=O)(=O)c1ccc(NC(=O)c2ccc3nc4ccccc4c(N)c3c2)cc1,102,> 200,–
CNn1c(-c2ccccc2)n[nH]c1=O,110,151,–
CN(C)CC(CN(C)C)c1cccc(C(CN(C)C)CN(C)C)n1,> 741,> 741,–
O=C1/C(=C\c2ccc([N+](=O)[O-])cc2)CS(=O)(=O)C/C1=C/c1ccc([N+](=O)[O-])cc1,> 0.2,0.0309,–
CCNC(=S)N/N=C(/c1ccccc1)c1ccccn1,> 200,1,–
CC(=O)NCCC1CN(C(=O)/C=C\C#C[Si](C)(C)C)c2ccccc21 (stereo not drawn),> 200,19.5,–
CCOC(=O)C1/C(=N/N)CN2CCc3c([nH]c4ccccc34)C12C(=O)OCC (stereo not drawn),> 158,145,–
COC(=O)[C@@H](COC(=O)/C=C/c1ccc(OC(C)=O)c(OC(C)=O)c1)NC(=O)/C=C/c1ccc(OC(C)=O)c(OC(C)=O)c1,> 100,19.1,–
N#C/C(=C\c1ccc(Br)cc1)c1nc(-c2cc3ccccc3oc2=O)cs1,83.2,> 100,–
Cc1cc(C)c(S(=O)(=O)N(CCCN)OCCCN)c(C)c1,> 200,195,–
Cc1cccc(NC(=O)C(=O)C(C(=O)c2ccc3ccccc3c2)C2OC(=O)c3ccccc32)c1C (stereo not drawn),> 28.2,26.3,–
O=C(O)c1cccc2cccc(-c3c4ccc(=O)cc-4oc4cc(O)ccc34)c12,14.1,123,–
CO/C(=N\N=C\c1cccc(C(F)(F)F)c1)c1ccncc1,> 117,12.6,–
O=C1CCc2nc3ccccc3c(=O)n21,> 1260,> 1260,–
Oc1ccc2c(c1)CC[N+]1=C2CCC2CCCC21 (stereo not drawn),> 209,> 209,–
CCCCCCCCCCCCCCCCOC1N(C2CC(N=[N+]=[N-])C(CO)O2)C(=O)NC(=O)[C@]1(C)Br (stereo partly drawn),> 200,11,–
Cc1ccc(/C=C2\NC(=S)N(CN3CCCCC3)C2=O)cc1,> 200,29.5,–
COC(=O)C12CN(C)CC(C(=O)OC)(C1=O)C(c1ccccn1)N(C)C2c1ccccn1 (stereo not drawn),> 51.3,36.3,–
CC(NC(=O)C(Cc1ccccc1)NC(=O)C(Cc1ccccc1)NC(=O)OC(C)(C)C)C(=O)OCc1ccccc1 (stereo not drawn) (Boc-Phe-Phe-Ala-OBn; configuration not given here),> 200,60.3,–
C(=C\c1ccc2ccccc2n1)/c1cccnc1,> 214,12,–
Cc1cccc(SCc2nc3ccccc3c(C)[n+]2[O-])c1,13.5,52.5,–
CCN(CC)CCNC(=O)c1ccccc1NC(=O)C(=O)Nc1ccccc1C(=O)NCCN(CC)CC,> 6.92,> 6.92,–

Compound,EC50 [µM],IC50 [µM],outcome
CCN1Cc2c(/C=C/c3ccccc3)nc3ccc(OC)cc3c2N(c2cccc(Cl)c2)C1,> 41.7,7.76,–
c1ccc(NC[Si]23OCCN(CCO2)CCO3)cc1,–,–,inactive
O=c1cc2oc3cc(O)c(O)cc3c(-c3ccccc3O)c-2cc1O,> 200,115,–
COc1cccc(C2c3cc4c(cc3OC(N3CCCCC3)C2C)OCO4)c1OC (stereo not drawn),> 200,1.7,–
c1ccc(CN2COCO[C@H]3CCC[C@@H]32)cc1,> 200,123,–
C1=NCCNCCNCCN=Cc2ccc(cc2)OCc2cccc(n2)COc2ccc1cc2,> 50.1,> 50.1,–
Cc1cc(Cl)ccc1NC(=O)C(=O)C(C(=O)c1ccccc1)C1OC(=O)c2ccccc21 (stereo not drawn),> 562,302,–
O=C(/C=C(\O)C(=O)O)/C=C(\O)c1ccc(Cl)cc1,> 69.2,> 69.2,–
O=[N+]([O-])c1ccc(N2N=NC3C4CCC(C4)C32)cc1 (stereo not drawn),> 95.5,43.7,–
OCCCCOC(c1ccccc1)(c1ccccc1)c1ccccc1,> 15.8,> 15.8,–
C/C=C1/CC(C(=O)OC)N(C(=O)OCc2ccccc2)C1=S (stereo not drawn),> 200,> 200,–
COc1ccc2c3c1OC1C4(OC)C=CC5(c6c(OC)ccc(O)c64)C(C2)N(C)CCC315 (stereo not drawn),> 100,53.7,–
CN1C(=O)N(C)C(O)C(Cl)(Br)C1=O (stereo not drawn),> 200,> 200,–
CC[C@@]1(C(=O)OC)C=CCN2C(=O)OC(C)(C)C21 (stereo partly drawn),–,–,inactive
O=C(O)c1nc2ccc(Cl)cc2[nH]c1=O,–,–,inactive
COc1ccc(CCNC(=O)Cc2ccccc2CCO)cc1OC,> 200,> 200,–
COc1ccc2c(c1C)C(=O)C(O)(CC=C(C)C)O2 (stereo not drawn),> 200,42.7,–
Cc1c(/C=N/NC(=S)Nc2cccc(Cl)c2)c(=O)n(-c2ccccc2)n1C,> 200,> 200,–
CCCCCCNc1n[nH]c(=O)c2c1nnn2Cc1ccccc1,> 200,> 200,–
O=C(O)c1ccc(Nc2nc3ccccc3nc2C(=O)O)cc1,> 200,> 200,–
CCN(CC)c1ccc2cc(-c3nc4ccccc4n3C)c(=O)oc2c1,> 7.59,0.437,–
COC(=O)CCC(C)C1CCC2[C@@H]3CC[C@@H]4CC(=O)CC[C@]4(C)C3CC[C@]12C (stereo partly drawn),> 5.13,> 5.13,–
